Measurements reported in ChEMBL document CHEMBL1154023, “Carbonic anhydrase inhibitors. Inhibition of the beta-class enzyme from the pathogenic yeast Candida glabrata with anions” (Bioorg Med Chem Lett, 2009).

The molecules below were run against T1, Carbonic anhydrase (Candida glabrata CBS 138, UniProt Q6FTL6) (assay: Inhibition of Candida glabrata carbonic anhydrase by stopped flow CO2 hydration assay).
T1 sequence (Q6FTL6 whole entry): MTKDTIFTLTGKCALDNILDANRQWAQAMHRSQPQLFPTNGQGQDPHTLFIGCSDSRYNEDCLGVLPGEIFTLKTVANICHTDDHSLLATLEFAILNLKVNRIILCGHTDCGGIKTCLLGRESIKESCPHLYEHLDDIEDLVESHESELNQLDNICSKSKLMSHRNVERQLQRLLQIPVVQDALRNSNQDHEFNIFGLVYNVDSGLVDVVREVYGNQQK
Set-up: species or system Nakaseomyces glabratus
In the case of `OB(O)c1ccccc1` [PHENYLBORONIC ACID], the Ki is reported as 100 µM.
`NS(=O)(=O)O` [SODIUM SULFAMATE] was tested, and the Ki was 110 µM.
`NS(N)(=O)=O` [SULFAMIDE] showed a Ki of 420 µM.
